Measured values reported in patent publication US20160355782A1, “METHOD FOR ENHANCING DIFFERENTIATION OF DOPAMINERGIC NEURONS” (Buddhist Tzu Chi Medical Foundation, priority 2015, published 2016).

Test system: midbrain explants
Assay: Midbrain explant cultures, TH+ cell numbers
Type: cell-based, rat
Conditions: without exogenous UCN
Description: Midbrain explants were dissected from E13.5 embryos by the method known by a person skilled in the art, for example as the protocol described by Baizabal and Covarrubias (2009) and performed with some modifications.
The dorsal midline of the explants was cut and the tissue was placed on porous (0.4 μm) transparent membrane inserts (25-mm in diameter, Nunc, Roskilde, Denmark) with the ventricular surface facing up. Inserts were then placed into six-well culture plates. Each well contained 1.5 mL of MEM medium supplemented with 10% FBS, 100 U/mL penicillin, and 100 μg/mL streptomycin. Explants were incubated at 37° C. with 5% CO2 for 4 hours, after which the explants were incubated in a serum-free DMEM/F12/N2 medium with or without UCN for 3 days. Midbrain explants were then fixed with 4% paraformaldehyde and immuno-histochemical analysis was performed.

[1] = CP-376395 in combination with astressin 2B

| Molecule | TH+ cell numbers in the VM of midbrain explants [1] | TH+ cell numbers in the VM of midbrain explants (astressin) |
| --- | --- | --- |
| astressin 2B | reduce | – |
| astressin | – | reduce |
| CCC(CC)Nc1cc(C)nc(Oc2c(C)cc(C)cc2C)c1C [CP-376395] | reduce | – |
